Data on three molecules can be found in article PMC6218115, “In Vitro Potency and Preclinical Pharmacokinetic Comparison of All-D-Enantiomeric Peptides Developed for the Treatment of Alzheimer’s Disease” (Journal of Alzheimer's Disease, 2018).

Read-outs that look alike come from different tables or passages of the source. Non-standard residues stand in square brackets, D forms with d. Residues, ends and D or L forms follow the SMILES beside them.

As a reminder, the Kd is the free concentration of one partner at which half of the binding sites on the other are occupied at equilibrium, for simple one-to-one binding. The term IC50 denotes the concentration that inhibits the measured activity by half.

A short description of data set [1]: Plasma protein binding, TRANSIL XL AGP binding kit. It counts as in vitro ADME, human. To be noted: TRANSIL XL AGP beads 0.04-3 μM, 5 μM peptide (3H-labelled + non-labelled), LSC read-out, nonlinear regression. How it is done:
(§1) Plasma protein binding (PPB) to human serum albumin (HSA) and α1-acid glycoprotein (AGP) of ANK6, tANK6, and cANK6r was analyzed according to the manufacturer’s protocol of TRANSIL^XL HSA and AGP binding kits (Sovicell GmbH, Germany). To cover a larger range of HSA and AGP concentrations, the bead concentrations in the kit were modified. For detection, a mixture of ^3H-labelled and non-labelled ANK6, tANK6, and cANK6r (final concentrations of 5μM) was added to different concentrations of HSA (7.4μM to 420μM, 10–12 different concentrations) or AGP beads (0.04μM to 3μM, 9–12 different concentrations). The amount of unbound ANK6, tANK6, and cANK6r (in %) to HSA or AGP, respectively, was determined by liquid scintillation counter (LSC) measurements. The dissociation constants (KD) as well as the free drug fractions (fu) in human plasma were calculated as described before. Calculations were based on peptide concentrations detected in the blood 4 h after single oral administration of 10 mg/kg: 0.01μM ANK6, 0.01μM tANK6, and 0.01μM cANK6r.

In data set [2] the target is T1, Aβ1-42 (Homo sapiens, UniProt P05067).
T1 construct: Lyophilized Aβ1 - 42 was dissolved in the respective peptide solution; purchased Isoloid GmbH (recombinant) or Bachem AG (synthetic)
T1 sequence (P05067 672-713 limits assumed): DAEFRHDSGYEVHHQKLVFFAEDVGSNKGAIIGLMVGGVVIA
Kind of data set: Aβ aggregation assay (Thioflavin T). In kind it is biochemical. The note with it: for molar excess with regard to Aβ for complete inhibition of Aβ1-42 fibril formation: 10 μM Aβ1-42, ThT; for reduction of the aggregation amplitude: equimolar concentration of peptide relative to Aβ1-42 (10 μM). As for the experimental part: The potencies of ANK6, tANK6, cANK6r, and D3 to inhibit Aβ1 - 42 aggregation was examined using Thioflavin T (ThT). For this purpose, a buffer solution composed of 20 mM sodium phosphate buffer (pH 7.4) including 50 mM sodium chloride, and 5μM ThT was prepared. Afterwards, ANK6, tANK6, cANK6r, or D3 were diluted in this solution, respectively, to final peptide concentrations between 0.3125 and 80μM (ANK6 and tANK6:0.3125, 0.625, 1.25, 2.5, 5, 10, 20μM; cANK6r: 1.25, 2.5, 5, 10, 20, 40, 80μM; D3:1.17, 2.34, 4.7, 9.4, 18.8, 37.5, 75μM).
The buffer solution only served as negative control (blank). Lyophilized Aβ1 - 42 was dissolved in the respective peptide solution to a final concentration of 10μM. D-peptide solutions with the highest concentration of the respective D-peptide containing all components, except of Aβ1 - 42, served as negative controls. Aβ1 - 42 solved in buffer solution without D-peptide served as positive control. 100μL of each solution were transferred into the wells (triplicates) of 96 well microplates (PS, black, non-binding from Greiner Bio-One, Germany) and fluorescence signals (excitationλ 440 nm, emissionλ 490 nm) were measured in a Polarstar Optima plate reader (BMG, Germany) at 37°C every 20 min for 70 h. Afterwards, the respective blank curves were subtracted from each aggregation curve to exclude background fluorescence. […] The half maximal inhibitory concentration (IC50 value) was determined by plotting the percent inhibition against the respective D-peptides’ concentrations. Datasets were fitted by nonlinear regression (one site – specific binding with Hill slope, GraphPad Prism 5).

Data set [3] deals with T2, Aβ1-42 oligomers (Homo sapiens, UniProt P05067).
T2 construct: Lyophilized Aβ1 - 42 was dissolved in the respective peptide solution; purchased Isoloid GmbH (recombinant) or Bachem AG (synthetic)
T2 sequence (P05067 672-713 limits assumed): as above
Kind of data set: Quantitative determination of interference with Aβ aggregate size distribution (QIAD). It counts as biochemical. To be noted: for Aβ concentrations in fractions 1 and 2 (Aβ monomers): 80 μM Aβ1-42, 20 μM peptide; for Aβ oligomer concentrations in fractions 4 to 6 versus Aβ1-42 alone: 80 μM Aβ1-42 pre-incubated 2.5 h, 20 μM peptide, 40 min, density gradient centrifugation, RP-HPLC UV 214 nm, p≤0.001. As for the experimental part: As soluble Aβ oligomers are currently expected to be the most neurotoxic Aβ species causing AD, the Aβ1 - 42 oligomer elimination potency of ANK6, tANK6, and cANK6r was investigated by the quantitative determination of interference with Aβ aggregate size distribution (QIAD) similar as described before. In short, lyophilized Aβ1 - 42 was dissolved in sodium phosphate buffer to a final concentration of 80μM and incubated for 2.5 h (21°C, 600 rpm) to achieve an Aβ aggregate distribution including monomers, oligomers, and higher molecular aggregates. Then, sodium phosphate buffer (control), 20μM ANK6, 20μM tANK6, or 20μM cANK6r were added and incubated for further 40 min (21°C, 600 rpm). Afterwards, the samples were loaded on top of a density gradient (5 to 50% (w/v) iodixanol, OptiPrep, Axis-Shield, Norway) and ultra-centrifuged for 3 h (4°C, 259.000× g, Optima TL-100, Beckman Coulter, USA). In the following, 14 fractions (140μL each) were taken from top to bottom, whereby the top fractions (1-2) contained Aβ monomers, the middle fractions (4–6) contained the Aβ oligomers of special interest, and the bottom fractions (11–14) contained high molecular weight co-precipitates. The left-over was diluted in 60μL 6 M guanidine hydrochloride (fraction 15). Finally, the Aβ1 - 42 concentrations in all fractions were determined via analytical RP-HPLC (reversed phase-high performance liquid chromatography) and UV absorbance detection at 214 nm.

Data set [4] is described as follows: Free drug fraction (fu) in human plasma predicted from HSA and AGP affinities. It counts as in vitro ADME. To be noted: predicted from affinities to HSA and AGP, at 0.01 μM peptide (blood level 4 h after oral administration). How it is done:
as §1

Data set [5] deals with tg-APPSwDI mice. To be noted: intraperitoneal treatment, 4 weeks; Klein et al.; cited from earlier work.
Data set [6] has as its target human serum albumin (HSA) (Homo sapiens, UniProt P02768). Kind of data set: Plasma protein binding, TRANSIL XL HSA binding kit. It counts as in vitro ADME. The note with it: TRANSIL XL HSA beads 7.4-420 μM, 5 μM peptide (3H-labelled + non-labelled), LSC read-out, nonlinear regression. How it is done:
as §1

Setting [7] is: 10 μM Aβ1-42, 5 μM ThT, 20 mM sodium phosphate pH 7.4, 50 mM NaCl, 37°C, 70 h, triplicates, nonlinear regression, read-out: IC50, inhibition of Aβ1-42 aggregation into ThT-positive fibrils.

Sequence of human serum albumin (HSA) (P02768 25-609): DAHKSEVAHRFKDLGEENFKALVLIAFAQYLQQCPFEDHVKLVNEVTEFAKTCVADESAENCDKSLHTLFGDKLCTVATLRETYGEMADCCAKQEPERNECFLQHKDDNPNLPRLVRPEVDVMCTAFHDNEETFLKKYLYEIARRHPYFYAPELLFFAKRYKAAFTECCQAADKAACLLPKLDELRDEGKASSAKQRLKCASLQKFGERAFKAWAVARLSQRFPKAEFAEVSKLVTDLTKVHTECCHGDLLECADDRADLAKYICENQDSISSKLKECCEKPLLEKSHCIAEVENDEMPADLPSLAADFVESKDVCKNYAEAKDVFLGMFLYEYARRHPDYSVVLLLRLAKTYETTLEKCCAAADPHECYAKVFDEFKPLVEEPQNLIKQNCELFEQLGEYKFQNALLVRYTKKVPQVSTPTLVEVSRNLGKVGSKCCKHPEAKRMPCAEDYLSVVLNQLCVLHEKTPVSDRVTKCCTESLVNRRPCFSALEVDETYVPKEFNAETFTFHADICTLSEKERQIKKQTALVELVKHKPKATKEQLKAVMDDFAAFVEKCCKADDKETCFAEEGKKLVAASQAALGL

In the case of `CC[C@@H](C)[C@H]1NC(=O)[C@@H](CCCNC(=N)N)NC(=O)[C@@H](CCCCN)NC(=O)[C@@H](CCCNC(=N)N)NC(=O)[C@@H](CCCNC(=N)N)NC(=O)[C@@H](CCCNC(=N)N)NC(=O)[C@@H](CCCCN)NC(=O)[C@@H](CCCCN)NC(=O)[C@@H](CCCCN)NC(=O)[C@@H]([C@H](C)O)NC(=O)[C@@H](C(C)C)NC(=O)[C@@H](CC(C)C)NC(=O)[C@@H](CCCNC(=N)N)NC1=O` [cANK6r] (cyclo([dR][dK][dR][dI][dR][dL][dV][dT][dK][dK][dK][dR][dR])), the dissociation constant (Kd) in data set [1] was 280 nM. Further, the IC50 in data set [2] (setting [7]) was 3.7 µM. Moreover, in data set [2], the “molar excess with regard to Aβ for complete inhibition of Aβ1-42 fibril formation” value is “about eight-fold molar excess”. Also, in data set [3], the “Aβ concentrations in fractions 1 and 2 (Aβ monomers)” value was “only slightly lowered”; the “Aβ oligomer concentrations in fractions 4 to 6 versus Aβ1-42 alone” value was “significantly lowered”. Moreover, the “overall fu in plasma (fraction unbound)” value in data set [4] is 1.36%.

Take `CC[C@@H](C)[C@@H](NC(=O)[C@@H](CCCNC(=N)N)NC(=O)[C@@H](CCCCN)NC(=O)[C@H](N)CCCNC(=N)N)C(=O)N[C@H](CCCNC(=N)N)C(=O)N[C@H](CC(C)C)C(=O)N[C@@H](C(=O)N[C@@H](C(=O)N[C@H](CCCCN)C(=O)N[C@H](CCCCN)C(=O)N[C@H](CCCCN)C(=O)N[C@H](CCCNC(=N)N)C(=O)N[C@H](CCCNC(=N)N)C(=O)N[C@H](CCCCN)C(=O)N[C@H](CCCNC(=N)N)C(=O)N[C@@H](C(=O)N[C@H](CCCNC(=N)N)C(=O)N[C@H](CC(C)C)C(=O)N[C@@H](C(=O)N[C@@H](C(=O)N[C@H](CCCCN)C(=O)N[C@H](CCCCN)C(=O)N[C@H](CCCCN)C(=O)N[C@H](CCCNC(=N)N)C(N)=O)[C@H](C)O)C(C)C)[C@H](C)CC)[C@H](C)O)C(C)C` [tANK6] (H-[dR][dK][dR][dI][dR][dL][dV][dT][dK][dK][dK][dR][dR][dK][dR][dI][dR][dL][dV][dT][dK][dK][dK][dR]-NH2; N-terminus assumed): the Kd in data set [1] stood at 60 nM. In data set [2] (setting [7]), the IC50 came to 2.1 µM. Also, in data set [2], the “molar excess with regard to Aβ for complete inhibition of Aβ1-42 fibril formation” value is given as “two-fold molar excess” and the “reduction of the aggregation amplitude” value is listed as “more than 97%”. In data set [3], the “Aβ concentrations in fractions 1 and 2 (Aβ monomers)” value was “reduced the Aβ monomer concentrations much stronger”; the “Aβ oligomer concentrations in fractions 4 to 6 versus Aβ1-42 alone” value is “significantly lowered”. In addition, in data set [4], the “overall fu in plasma (fraction unbound)” value is 0.29%.

Consider `CC[C@@H](C)[C@@H](NC(=O)[C@@H](CCCNC(=N)N)NC(=O)[C@@H](CCCCN)NC(=O)[C@H](N)CCCNC(=N)N)C(=O)N[C@H](CCCNC(=N)N)C(=O)N[C@H](CC(C)C)C(=O)N[C@@H](C(=O)N[C@@H](C(=O)N[C@H](CCCCN)C(=O)N[C@H](CCCCN)C(=O)N[C@H](CCCCN)C(=O)N[C@H](CCCNC(=N)N)C(N)=O)[C@H](C)O)C(C)C` [ANK6] (H-[dR][dK][dR][dI][dR][dL][dV][dT][dK][dK][dK][dR]-NH2; N-terminus assumed), for which the Kd in data set [1] is 290 nM. In addition, the “memory performance of tg-APPSwDI mice” value in data set [5] is given as “a non-significant tendency for improving memory performance”. In addition, in data set [2], the IC50 stood at 3.6 µM, the “molar excess with regard to Aβ for complete inhibition of Aβ1-42 fibril formation” value is recorded as “two-fold molar excess” and the “reduction of the aggregation amplitude” value is given as “more than 97%”. For the same molecule, in data set [3], the “Aβ concentrations in fractions 1 and 2 (Aβ monomers)” value is recorded as “reduced the Aβ monomer concentrations much stronger”; the “Aβ oligomer concentrations in fractions 4 to 6 versus Aβ1-42 alone” value is listed as “significantly lowered”. The “overall fu in plasma (fraction unbound)” value in data set [4] was 1.43%. Moreover, the “KD to HSA” value in data set [6] is “not analyzable”.
